Data as given in patent US20100234463A1, “Method for Identifying Modulators of Gamma Secretase or Notch” (priority 2005, published 2010).
pIC50: −log10 of the molar value.

Tests used:
[1] = test system: Notch; experiment: NICD nuclear translocation high content screening assay (ArrayScan); assay type: cell-based, human
Experimental: (§1) Human embryonic kidney (HEK) 293 cells stably over-expressing β-amyloid precursor protein (βAPP695) and c-myc-tagged NotchΔE (M1727V) have been previously described (Beher, D. et al., J. Biol Chem. 276: 45394-45402, (2001)). Cells were routinely maintained in Dulbecco's modified Eagle's medium (DMEM) supplemented with 10% (v/v) fetal calf serum (FCS, Invitrogen™, Carlsbad, Calif.), 1 μg/ml puromycin (Sigma-Aldrich, St. Louis, Mo.) to maintain βAPP expression and 100 μg/ml zeocin (Life Technologies, Inc., Rockville, Md.) to select for NotchΔE expression. Cells were passaged on a weekly basis using 1:10 split ratio.
(§2) On the day of the assay, media was removed and cells washed with phosphate-buffered saline (PBS, Sigma-Aldrich, St. Louis, Mo.), followed by incubation with 1.5 ml Accutase (PAA Laboratories GmbH, Pasching, Austria) at 37° C. for 10 minutes to detach cells. DMEM supplemented with 10% (v/v) FCS was added and the cell suspension centrifuged for 5 minutes at 1120 prm. […] A further 9 ml DMEM supplemented with 0.4% (v/v) FCS was added and cells counted.
(§3) Cells were plated in poly-d-lysine coated 96-well plates (Becton Dickinson, Fullerton, Calif.) at 10,000 cells/well in DMEM supplemented with 0.4% (v/v) FCS (Invitrogen™, Carlsbad, Calif.). […] Cell conditioned media was removed for quantification of Aβ peptides and the cell monolayer fixed by incubating with 3.7% (v/v) formaldehyde (Sigma-Aldrich, St. Louis, Mo.) in PBS at room temperature for fifteen minutes.
Cells were washed with PBS (three times, five minutes each) and incubated with 0.1% Triton-X in PBS for 90 seconds at room temperature. […] After washing with PBS (three times, five minutes each), the plates were sealed and transferred to a Cellomics™ ArrayScan® 4.0 (Cellomics Inc, Pittsburgh, Pa.) for quantification of NICD translocation.
Automated image capture and quantification of NICD nuclear translocation was performed using a Cellomics™ ArrayScan® 4.0 and the Cytoplasm to Nucleus Translocation BioApplication software (Cellomics, Pittsburgh, Pa.). […]

[2] = test system: γ-secretase; conditions: reported; cited from earlier work
[3] = test system: Aβ40; experiment: Quantification of Aβ40 in cell-conditioned media by ECL; assay type: cell-based, human; conditions: 24 hours
Experimental: as §1, §2, §3
Aβ peptides secreted into the media were quantified using an electrochemiluminescence (ECL) assay in a 96-well plate format (Sector HTS™ analyzer, Meso Scale Discovery® a division of Meso Scale Diagnostics™, LLC (MSD™), Gaithersburg, Md.). […] Plates were washed with PBS (three times, five minutes each) and media replaced with 150 μl Read buffer S (Meso Scale Discovery®) prior to detecting Aβ40 and Aβ42 using the Sector HTS™ Analyzer. […]
Mean values for vehicle control and compound C treated cells were calculated. […] Percent control values were calculated using the following formula: […]

[4] = test system: Aβ42; experiment: Quantification of Aβ42 in cell-conditioned media by ECL; assay type: cell-based, human; conditions: 24 hours
Experimental: as §1
as §2, with “cells.” for “cells. DMEM supplemented with 10% (v/v) FCS was added and the cell suspension centrifuged for 5 minutes at 1120 prm.”
as §3, with “minutes. […]” for “minutes.”

[5] = test system: Aβ42; conditions: cited from earlier work

Compound	inhibition of NICD nuclear translocation over time ([1]; 10 μM, up to twenty four hours)	potency for inhibition of Aβ40 versus Aβ42 peptides [2]	effect on Aβ40 levels ([3]; increasing concentrations)	pIC50 ([4]; HEK293 βAPP695 NotchΔE cells)	effect on Aβ42 peptide levels ([4]; increasing concentrations)	concentrations with no effect on NICD nuclear translocation ([1]; 24 hours)	pIC50 ([1]; NICD nuclear translocation, 24 hours)	concentrations at which Aβ40 peptide generation was inhibited [3] [µM]	pIC50 ([3]; HEK293 βAPP695 NotchΔE cells)	reported effect on Aβ42 [5]
CC(C)C[C@H](NC(=O)[C@H](Cc1ccccc1)C[C@@H](O)[C@H](Cc1ccccc1)NC(=O)OC(C)(C)C)C(=O)N[C@@H](Cc1ccccc1)C(N)=O [C]	Time-dependant inhibition	equivalent potency	declined	–	–	–	–	–	–	–
C[C@@H](C(=O)O)c1ccc(-c2ccccc2)c(F)c1 [Compound F]	–	–	–	5.03	selectively reduced	up to 1000 μM	< 3.00	≥ 30	< 3.00	preferentially inhibit Aβ42
